Experimental data from patent publication US20220017501A1, “MICROBIOCIDAL THIAZOLE DERIVATIVES” (SYNGENTA PARTICIPATIONS AG, priority 2018, published 2022).

Key:
[1] = test system: Puccinia recondita f. sp. tritici; experiment: Puccinia recondita f. sp. tritici / wheat / leaf disc preventative (brown rust); format: in vivo; conditions: foliar, wheat leaf segments, preventative (inoculated 1 day after application), compared to untreated control, read-out: control of Puccinia recondite f. sp. tritici
Experimental: Example B12: Puccinia Recondita f. sp. Tritici/Wheat/Leaf Disc Preventative (Brown Rust) Wheat leaf segments cv. Kanzler are placed on agar in multiwell plates (24-well format) and sprayed with the formulated test compound diluted in water. The leaf disks are inoculated with a spore suspension of the fungus 1 day after application. The inoculated leaf segments are incubated at 19° C. and 75% rh under a light regime of 12 h light/12 h darkness in a climate cabinet and the activity of a compound is assessed as percent disease control compared to untreated when an appropriate level of disease damage appears in untreated check leaf segments (7-9 days after application). […] […].23.

[2] = test system: Mycosphaerella graminicola (Septoria tritici); experiment: Mycosphaerella graminicola (Septoria tritici) / liquid culture (Septoria blotch); format: cell-based; conditions: Zymoseptoria tritici, growth inhibition photometrically 4-5 days after application, read-out: control of Mycosphaerella graminicola
Experimental: (§1) Example B16: Mycosphaerella Graminicola (Septoria Tritici)/Liquid Culture (Septoria Blotch) Conidia of the fungus from cryogenic storage are directly mixed into nutrient broth (PDB potato dextrose broth). After placing a (DMSO) solution of test compound into a microtiter plate (96-well format), the nutrient broth containing the fungal spores is added. The test plates are incubated at 24° C. and the inhibition of growth is determined photometrically 4-5 days after application. […] […].23.

[3] = test system: Mycosphaerella arachidis (Cercospora arachidicola); experiment: Mycosphaerella arachidis (Cercospora arachidicola) / liquid culture (early leaf spot); format: cell-based; conditions: growth inhibition photometrically 4-5 days after application, read-out: control of Mycosphaerella arachidis
Experimental: as §1, with “B8:” for “B16:”, “Arachidis (Cercospora Arachidicola)/Liquid” for “Graminicola (Septoria Tritici)/Liquid”, “(Early Leaf Spot)” for “(Septoria Blotch)”

[4] = test system: Magnaporthe grisea (Pyricularia oryzae); experiment: whole plant or invertebrate; format: in vivo; conditions: foliar, read-out: control of Magnaporthe grisea
[5] = test system: Glomerella lagenarium (Colletotrichum lagenarium); experiment: Glomerella lagenarium (Colletotrichum lagenarium) / liquid culture (anthracnose); format: cell-based; conditions: Colletotrichum orbiculare, growth inhibition photometrically 3-4 days after application, read-out: control of Glomerella lagenarium
Experimental: Example B3: Glomerella Lagenarium (Colletotrichum Lagenarium)/Liquid Culture (Anthracnose) Conidia of the fungus from cryogenic storage are directly mixed into nutrient broth (PDB potato dextrose broth). After placing a (DMSO) solution of test compound into a microtiter plate (96-well format), the nutrient broth containing the fungal spores is added. The test plates are incubated at 24° C. and the inhibition of growth is measured photometrically 3-4 days after application.

[6] = test system: Blumeria graminis f. sp. tritici (Erysiphe graminis f. sp. tritici); experiment: Blumeria graminis f. sp. tritici / wheat / leaf disc preventative (powdery mildew on wheat); format: in vivo; conditions: foliar, wheat leaf segments, compared to untreated control
Experimental: Example B4: Blumeria Graminis f. sp. Tritici (Erysiphe Graminis f. sp. Tritici)/Wheat/Leaf Disc Preventative (Powdery Mildew on Wheat) Wheat leaf segments cv. Kanzler are placed on agar in a multiwell plate (24-well format) and sprayed with the formulated test compound diluted in water. The leaf disks are inoculated by shaking powdery mildew infected plants above the test plates 1 day after application. The inoculated leaf disks are incubated at 20° C. and 60% rh under a light regime of 24 h darkness followed by 12 h light/12 h darkness in a climate chamber and the activity of a compound is assessed as percent disease control compared to untreated when an appropriate level of disease damage appears on untreated check leaf segments (6-8 days after application). […].23.

[7] = test system: Monographella nivalis (Microdochium nivale); experiment: Monographella nivalis (Microdochium nivale) / liquid culture (foot rot cereals); format: cell-based; conditions: growth inhibition photometrically 4-5 days after application, read-out: control of Monographella nivalis
Experimental: as §1, with “B7: Monographella Nivalis (Microdochium Nivale)/Liquid” for “B16: Mycosphaerella Graminicola (Septoria Tritici)/Liquid”, “(Foot Rot Cereals)” for “(Septoria Blotch)”

[8] = format: physicochemical; conditions: for Solubility in water: pH 7.2
Experimental: Saturated solutions of test compounds were prepared in either aqueous buffer solutions (10 mM mixed phosphate, pH 7.20) or in heptane. Typically 1 mg of test compound in a 2 dram vial with 1 mL of buffer or heptane was left overnight (20 hours) on a roller shaker after an initial 20 minute period in a sonic bath. Saturated samples were then filtered through Millex-HV 0.45 micron syringe driven filters (aqueous or non-aqueous version dependent on solvent). […] Protocol variations included pre-saturation of the filters for compounds expected to have very low solubility, and centrifugation of the saturated samples for oils.

physchem = conditions: pH 7
[9] = Photostability, thin-film irradiation (Atlas Suntest); format: physicochemical; conditions: thin film on glass, filtered xenon lamp 750 W/m2; time for first 50% loss
Experimental: Throughout the following description, LogP means logarithm of the partition coefficient, ppm means parts per million, and T50 represents the half-time of the compound under irradiation conditions.
Photostability tests were carried out by irradiation of thin-film deposits of compounds and 20 formulations on glass surfaces, using a filtered xenon lamp system (Atlas Suntest) which reproduces the spectrum and intensity of sunlight. The spectral output power of the Suntest was set to 750 W/m2, which is the typical daily maximum irradiance level at noon (UK, midsummer).
Test compounds were typically dissolved in HPLC grade methanol to give 1 g/L stock solutions. Alternatively, formulated compounds were suspended in water at the same concentration. 2 μL droplets of test solutions were spotted onto microscope cover slips in a 3D printed holder, allowed to dry then irradiated in the Suntest for varying times. […] Solutions were analysed by reverse phase HPLC, typically using a Waters UPLC system with Photodiode Array (PDA) and Waters columns (BEH C18, 100×2.1mm×1.7 μm) using mixed aqueous:acetonitrile mobile phase, acidifed with 0.2% formic acid. Peak detection was at the optimum wavelength for each candidate compound and PDA peak areas were used for quantification. […]

Pyrenophora teres = Pyrenophora teres / barley / leaf disc preventative (net blotch); format: in vivo; conditions: foliar, barley leaf segments, compared to untreated control
Experimental: Example B14: Pyrenophora Teres/Barley/Leaf Disc Preventative (Net Blotch) Barley leaf segments cv. Hasso are placed on agar in a multiwell plate (24-well format) and sprayed with the formulated test compound diluted in water. The leaf […] inoculated with a spore suspension of the fungus 2 days after application. The inoculated leaf segments are incubated at 20° C. and 65% rh under a light regime of 12 h light/12 h darkness in a climate cabinet and the activity of a compound is assessed as disease control compared to untreated when an appropriate level of disease damage appears in untreated check leaf segments (5-7 days after application). […] […].23.

Fusarium culmorum = format: in vivo; conditions: 200 ppm; wheat spikelets, preventative; compared to untreated control

SMILES	pest or weed control at 200 ppm [1] [%]	inhibition of growth at 20 ppm [2] [%]	melting point [°C]	inhibition of growth at 20 ppm [3] [%]	pest or weed control at 200 ppm [4] [%]	inhibition of growth at 20 ppm [5] [%]	pest or weed control at 200 ppm [6] [%]	inhibition of growth at 20 ppm [7] [%]	Solubility in heptane [8] [ppm]	Solubility in water [8] [ppm]	chromatographic logP (physchem)	Photostability T50 [9] [h]	pest or weed control at 200 ppm (Pyrenophora teres) [%]	control of Fusarium culmorum (Fusarium culmorum)
Cc1sc(N(C#N)c2cncc(F)c2)nc1C(=O)NC1CCC1(C)C (stereo not drawn) [I.b.18, 2-[cyano-(5-fluoro-3-pyridyl)amino]-N-(2,2-dimethylcyclobutyl)-5-methyl-thiazole-4-carboxamide]	≥ 80	≥ 80	150 to 152	≥ 80	≥ 80	≥ 80	≥ 80	≥ 80						
Cc1sc(Nc2cc(F)nc(F)c2)nc1C(=O)NC1CCC1(C)C (stereo not drawn) [Compound E-0, 2-[(2,6-difluoro-4-pyridyl)amino]-N-(2,2-dimethylcyclobutyl)-5-methyl-thiazole-4-carboxamide, reference compound]									4.1	0.70	5.08	3.5		
Cc1sc(N(C#N)c2cc(F)nc(F)c2)nc1C(=O)NC1CCC1(C)C (stereo not drawn) [I.b.23, 2-[cyano-(2,6-difluoro-4-pyridyl)amino]-N-(2,2-dimethylcyclobutyl)-5-methyl-thiazole-4-carboxamide]		≥ 80		≥ 80	≥ 80	≥ 80	≥ 80	≥ 80	699	2.5	3.76	11	≥ 80	at least 80%
